Laboratory results published in ChEMBL document CHEMBL2016451, “Antimycobacterial activity of bisbenzylisoquinoline alkaloids from Tiliacora triandra against multidrug-resistant isolates of Mycobacterium tuberculosis” (Bioorg Med Chem Lett, 2012).
≈ marks a conversion by molar mass, not a printed value.

Key:
MRC5 [1] = test: Cytotoxicity against human MRC5 cells at 2 ug/ml by MTT assay; type: cell-based
[2] = system: Mycobacterium tuberculosis; test: Antimycobacterial activity against Mycobacterium tuberculosis H37Rv after 16 to 24 hrs by alamar blue assay; type: functional
MRC5 [3] = test: Cytotoxicity against human MRC5 cells at 6 ug/ml by MTT assay; type: cell-based
MRC5 [4] = test: Cytotoxicity against human MRC5 cells at 2.1 ug/ml by MTT assay; type: cell-based
MRC5 [5] = test: Cytotoxicity against human MRC5 cells by MTT assay; type: cell-based
MRC5 [6] = test: Cytotoxicity against human MRC5 cells at 1 ug/ml by MTT assay; type: cell-based
[7] = system: Mycobacterium tuberculosis; test: Antimycobacterial activity against Mycobacterium tuberculosis H37Ra after 16 to 24 hrs by alamar blue assay; type: functional
[8] = system: Mycobacterium tuberculosis; test: Antimycobacterial activity against p-aminosalicylic acid-resistant Mycobacterium tuberculosis H37Rv ATCC 35821 after 16 to 24 hrs by alamar blue assay; type: functional

Row | SMILES | Activity (MRC5 [1]) | MIC [2] [µg/mL] | Activity (MRC5 [3]) | Activity (MRC5 [4]) | IC50 (MRC5 [5]) [µg/mL] | Activity (MRC5 [6]) | MIC [7] [µg/mL] | MIC [8] [µg/mL]
1 | COc1ccc2cc1-c1cc(ccc1O)C[C@@H]1NCCc3cc4c(cc31)Oc1c(c(OC)cc3c1[C@H](C2)N(C)CC3)O4 | Non-toxic | 3.1 (≈ 5.51 µM) | Non-toxic | Non-toxic | 3.8 (≈ 6.75 µM) | Non-toxic | 3.1 (≈ 5.51 µM) | 1.5 (≈ 2.67 µM)
2 | COc1ccc2cc1-c1cc(cc(Br)c1O)C[C@H]1c3cc4c(cc3CCN1C)Oc1c(OC)cc3c(c1O4)[C@H](C2)N(C)CC3 | Non-toxic | 3.1 (≈ 4.73 µM) | Non-toxic | Non-toxic | 20 (≈ 30.5 µM) | Non-toxic | 6.2 (≈ 9.46 µM) | 1.5 (≈ 2.29 µM)
3 | COc1ccc2cc1-c1cc(ccc1O)C[C@H]1c3cc4c(cc3CCN1C)Oc1c(OC)cc3c(c1O4)[C@@H](C2)N(C)CC3 [TILIACORINE] | Non-toxic | 3.1 (≈ 5.38 µM) | Non-toxic | Non-toxic | 3.87 (≈ 6.71 µM) | Non-toxic | 3.1 (≈ 5.38 µM) | 3.1 (≈ 5.38 µM)
4 | COc1ccc2cc1-c1cc(ccc1O)C[C@H]1c3cc4c(cc3CCN1C)Oc1c(OC)cc3c(c1O4)[C@H](C2)N(C)CC3 [TILIACORININE] | Non-toxic | 6.2 (≈ 10.8 µM) | Non-toxic | Non-toxic | 3.13 (≈ 5.43 µM) | Non-toxic | 3.1 (≈ 5.38 µM) | 3.1 (≈ 5.38 µM)
